Assays:
Assay type in all cases: biochemical
[1] = molecular target: T1, matriptase (Homo sapiens, UniProt Q9Y5Y6); experiment: Fluorescent kinetic enzyme assay of matriptase activity (Boc-QAR-AMC); details: Table 2; read-out: Matriptase (IC50 nM)
T1 construct: purchased R&D Systems 3946-SE-010
T1 sequence (Q9Y5Y6 615-855 limits assumed): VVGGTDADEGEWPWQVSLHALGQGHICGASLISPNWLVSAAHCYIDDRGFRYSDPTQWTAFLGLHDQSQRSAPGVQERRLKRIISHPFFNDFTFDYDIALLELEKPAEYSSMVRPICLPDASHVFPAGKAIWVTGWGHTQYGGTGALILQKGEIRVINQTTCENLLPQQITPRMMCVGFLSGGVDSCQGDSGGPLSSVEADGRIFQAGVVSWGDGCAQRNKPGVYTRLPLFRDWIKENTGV

[2] = molecular target: recombinant thrombin (Homo sapiens, UniProt P00734); experiment: Chromogenic kinetic enzyme assay of thrombin (S2238); details: Table 2; chromogenic assay; read-out: Thrombin* (IC50 nM)
[3] = molecular target: Factor Xa (Homo sapiens, UniProt P00742); experiment: Chromogenic kinetic enzyme assay of Factor Xa (S2222); details: Table 2; chromogenic assay; read-out: Factor Xa* (IC50 nM)
[4] = molecular target: T2, KLK5 (Homo sapiens, UniProt Q9Y337); experiment: Fluorescent kinetic enzyme inhibitor assay of KLK5 (Boc-VPR-AMC); details: Table 4; 7.5 nM KLK5, 100 μM substrate
T2 construct: purchased R&D Systems 1108-SE-010
T2 sequence (Q9Y337 23-293): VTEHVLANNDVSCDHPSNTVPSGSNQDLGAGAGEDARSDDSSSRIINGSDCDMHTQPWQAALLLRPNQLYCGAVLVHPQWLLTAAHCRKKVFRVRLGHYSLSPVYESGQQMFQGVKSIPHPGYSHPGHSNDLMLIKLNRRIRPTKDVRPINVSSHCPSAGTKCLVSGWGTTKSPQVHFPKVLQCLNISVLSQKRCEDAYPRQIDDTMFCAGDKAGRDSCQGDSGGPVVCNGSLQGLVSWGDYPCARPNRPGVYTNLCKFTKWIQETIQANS
Procedure: Fluorescent Kinetic Enzyme Inhibitor Assay of KLK5: Inhibitors (11-pt serial dilutions, 0-20 μM final concentration in reaction) were serially diluted in DMSO (2% DMSO final concentration) and then mixed with KLK5 (#1108-SE-010, R&D Systems, Minneapolis, Minnesota) in black 384 well plates (Corning #3575. Corning, NY). The final assay concentration for KLK5 is 7.5 nM in TNC buffer (25 mM Tris, 150 mM NaCl, 5 mM CaCl2), 0.01% Triton X-100, pH 8). After thirty minutes incubation at room temperature, Boc-VPR-AMC substrate was added. The final substrate concentrations for assay is 100 μM. Changes in fluorescence (excitation at 380 nm and emission at 460 nm) were measured at room temperature over time in a Biotek Synergy 2 plate reader (Winnoski, VT). Using GraphPad Prism version 6.04 software program, (GraphPad Software, San Diego, CA, graphpad.com), a four parameter curve fit was used to determine the inhibitor IC50s from a plot of the mean reaction velocity versus the inhibitor concentration. The IC50 values represent the average of three or more separate experimental determinations.

Sequence of Factor Xa (P00742 235-488 limits assumed): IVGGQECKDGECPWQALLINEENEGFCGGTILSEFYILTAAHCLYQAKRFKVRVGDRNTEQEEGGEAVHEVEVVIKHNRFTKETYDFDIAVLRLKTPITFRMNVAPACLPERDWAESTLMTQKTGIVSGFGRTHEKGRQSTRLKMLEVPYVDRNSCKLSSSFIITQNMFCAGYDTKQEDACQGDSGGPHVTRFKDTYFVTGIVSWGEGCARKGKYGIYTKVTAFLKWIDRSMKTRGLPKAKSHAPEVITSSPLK
Sequence of Factor Xa (P00742 41-179 partner limits assumed): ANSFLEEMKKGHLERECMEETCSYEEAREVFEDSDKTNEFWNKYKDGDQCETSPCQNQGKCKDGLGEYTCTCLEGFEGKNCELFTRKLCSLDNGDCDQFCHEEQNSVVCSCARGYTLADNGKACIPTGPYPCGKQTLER

IC50 [1]: 3.4 nM
IC50 [2]: 1090 nM
IC50 [3]: 1530 nM
IC50 [4]: 2530 nM
SMILES: CC(=O)N[C@H]1CC(=O)NCCCC[C@@H](C(=O)N[C@@H](CCCNC(=N)N)C(=O)c2nc3ccccc3s2)NC(=O)[C@H](Cc2ccccc2)NC1=O [VD3112, (3S,6S,14S)-6-acetamido-N—((S)-1-(benzo[d]thiazol-2-yl)-5-guanidino-1-oxopentan-2-yl)-3-benzyl-2,5,8-trioxo-1,4,9-triazacyclotetradecane-14-carboxamide]

— patent US12590123B2, “Compounds and methods for treating cancer, viral infections, and allergic conditions” (Washington University, priority 2019, dated 2026)
